pIC50: −log10 of the molar value. Values joined by “and” are separate entries in the source; they are usually repeats but may differ in a detail not shown here. Equal entries are not always repeated.
What was measured:
[1] = Clearance in CD-1 mouse at 3 mg/kg, iv measured for 24 hrs by LC-MS/MS analysis; format: ADME, organism-based; conditions: in vivo
[2] = Ratio of AUC(last) in liver to plasma in CD-1 mouse at 8 mg/kg, po by LC-MS/MS analysis; format: ADME, organism-based
[3] = target: T1, Solute carrier organic anion transporter family member 1B3 (Homo sapiens, UniProt Q9NPD5); assay: Substrate activity at OATP1B3 (unknown origin) expressed in HEK293 cells assessed as ratio of drug uptake in absence of transporter inhibitor, estradiol-17beta-glucuronide to drug uptake in presence of transporter inhibitor, estradiol-17beta-glucuronide by LC-MS/MS analysis; format: ADME, cell-based
T1 sequence (Q9NPD5 whole entry): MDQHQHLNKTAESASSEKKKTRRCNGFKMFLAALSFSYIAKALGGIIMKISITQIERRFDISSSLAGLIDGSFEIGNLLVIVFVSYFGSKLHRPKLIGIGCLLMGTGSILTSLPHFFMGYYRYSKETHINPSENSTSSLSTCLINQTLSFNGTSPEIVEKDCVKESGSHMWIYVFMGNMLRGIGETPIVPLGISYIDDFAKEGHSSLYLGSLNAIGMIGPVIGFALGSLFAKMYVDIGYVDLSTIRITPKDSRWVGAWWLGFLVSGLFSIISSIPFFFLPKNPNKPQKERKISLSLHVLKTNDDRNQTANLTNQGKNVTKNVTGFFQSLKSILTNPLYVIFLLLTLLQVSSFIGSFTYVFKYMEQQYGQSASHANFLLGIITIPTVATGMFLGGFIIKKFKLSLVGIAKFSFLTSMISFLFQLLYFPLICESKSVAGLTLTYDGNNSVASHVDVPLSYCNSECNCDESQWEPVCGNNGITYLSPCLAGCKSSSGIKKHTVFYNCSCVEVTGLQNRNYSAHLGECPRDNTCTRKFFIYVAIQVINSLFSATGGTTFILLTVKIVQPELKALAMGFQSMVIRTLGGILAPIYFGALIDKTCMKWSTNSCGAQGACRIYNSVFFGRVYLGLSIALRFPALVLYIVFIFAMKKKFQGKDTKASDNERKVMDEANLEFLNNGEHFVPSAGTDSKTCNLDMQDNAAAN

Cytochrome P450 2C8 = target: T2, Cytochrome P450 2C8 (Homo sapiens, UniProt P10632); assay: Inhibition of CYP2C8 in human liver microsomes using paclitaxel as substrate preincubated for 5 mins followed by NADPH addition by LC-MS/MS analysis; format: ADME
T2 sequence (P10632 whole entry): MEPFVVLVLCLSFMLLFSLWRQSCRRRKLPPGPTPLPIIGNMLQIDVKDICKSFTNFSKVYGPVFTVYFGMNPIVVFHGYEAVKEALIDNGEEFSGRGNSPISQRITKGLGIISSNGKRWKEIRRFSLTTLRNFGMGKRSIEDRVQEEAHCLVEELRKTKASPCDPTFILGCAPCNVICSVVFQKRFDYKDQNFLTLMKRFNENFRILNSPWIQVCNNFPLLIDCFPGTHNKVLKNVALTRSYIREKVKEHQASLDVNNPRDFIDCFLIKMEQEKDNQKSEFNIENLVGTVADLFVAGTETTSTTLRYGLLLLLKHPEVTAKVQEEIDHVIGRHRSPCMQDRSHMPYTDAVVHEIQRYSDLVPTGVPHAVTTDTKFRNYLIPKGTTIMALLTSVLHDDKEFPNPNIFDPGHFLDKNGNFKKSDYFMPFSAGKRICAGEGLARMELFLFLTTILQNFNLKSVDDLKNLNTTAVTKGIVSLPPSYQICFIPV

[4] = Drug concentration in CD-1 mouse liver at 8 mg/kg, po measured after 15 mins by LC-MS/MS analysis; format: ADME, organism-based; conditions: read-out: Ct

- clearance [1]: 11.9 L/h/kg
- Kp [2]: 37.7
- Ratio [3]: 11.57
- pIC50 (Cytochrome P450 2C8): < 5.00
- concentration at 0.25 h [4]: 333 ng/mL and 730 nM
SMILES: COc1cc2c(cc1OCCCCCCC(=O)O)C[C@@H](C(C)C)n1cc(C(=O)O)c(=O)cc1-2
